Results: PubChem BioAssay (NCI)
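Grown in 96-well plates, cells were treated for 48 hours with each compound at five concentrations. Insufficient inhibition: endpoint recorded as highest concentration tested. TGI: total growth inhibition.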

Experiments:
Assay in all cases: NCI tumour cell line growth inhibition, 48 h
K-562 leukemia = tested on: K-562 leukemia
NCI-H226 lung = tested on: NCI-H226 lung
IGROV1 ovarian = tested on: IGROV1 ovarian
U251 CNS = tested on: U251 CNS
OVCAR-5 ovarian = tested on: OVCAR-5 ovarian
UACC-257 melanoma = tested on: UACC-257 melanoma
HS 578T breast = tested on: HS 578T breast
HOP-92 NSCLC = tested on: HOP-92 NSCLC
TK-10 renal = tested on: TK-10 renal
HL-60(TB) leukemia = tested on: HL-60(TB) leukemia
A549 NSCLC = tested on: A549 NSCLC
786-0 renal = tested on: 786-0 renal
HCT-15 colon = tested on: HCT-15 colon
SF-539 CNS = tested on: SF-539 CNS
SK-OV-3 ovarian = tested on: SK-OV-3 ovarian
OVCAR-3 ovarian = tested on: OVCAR-3 ovarian
RPMI-8226 leukemia = tested on: RPMI-8226 leukemia
NCI-H460 lung = tested on: NCI-H460 lung
PC-3 prostate = tested on: PC-3 prostate
T-47D breast = tested on: T-47D breast
SR leukemia = tested on: SR leukemia
CCRF-CEM leukemia = tested on: CCRF-CEM leukemia
SNB-75 CNS = tested on: SNB-75 CNS
NCI-H23 lung = tested on: NCI-H23 lung
SN12C renal = tested on: SN12C renal
DU-145 prostate = tested on: DU-145 prostate
HCT-116 colon = tested on: HCT-116 colon
A498 renal = tested on: A498 renal
RXF 393 renal = tested on: RXF 393 renal
M14 melanoma = tested on: M14 melanoma
MDA-MB-435 = tested on: MDA-MB-435
KM12 colon = tested on: KM12 colon
EKVX NSCLC = tested on: EKVX NSCLC
NCI/ADR-RES ovarian = tested on: NCI/ADR-RES ovarian
MOLT-4 leukemia = tested on: MOLT-4 leukemia
MDA-MB-231 breast = tested on: MDA-MB-231 breast
CAKI-1 renal = tested on: CAKI-1 renal
SK-MEL-5 melanoma = tested on: SK-MEL-5 melanoma
MALME-3M melanoma = tested on: MALME-3M melanoma
UACC-62 melanoma = tested on: UACC-62 melanoma
COLO 205 colon = tested on: COLO 205 colon
SNB-19 CNS = tested on: SNB-19 CNS
OVCAR-8 ovarian = tested on: OVCAR-8 ovarian
HCC-2998 colon = tested on: HCC-2998 colon
MDA-N = tested on: MDA-N
UO-31 renal = tested on: UO-31 renal
ACHN renal = tested on: ACHN renal
SF-295 CNS = tested on: SF-295 CNS
HT29 colon = tested on: HT29 colon
MCF7 breast = tested on: MCF7 breast
BT-549 breast = tested on: BT-549 breast
LOX IMVI melanoma = tested on: LOX IMVI melanoma
SF-268 CNS = tested on: SF-268 CNS
HOP-62 NSCLC = tested on: HOP-62 NSCLC
SW-620 colon = tested on: SW-620 colon
OVCAR-4 ovarian = tested on: OVCAR-4 ovarian
SK-MEL-2 melanoma = tested on: SK-MEL-2 melanoma
NCI-H522 lung = tested on: NCI-H522 lung
SK-MEL-28 melanoma = tested on: SK-MEL-28 melanoma

Cn1c(=O)c2c(nc3sc4nc5ccccc5nc4n32)n(C)c1=O
TGI (K-562 leukemia): > 100 µM | TGI (NCI-H226 lung): > 100 µM | TGI (IGROV1 ovarian): > 100 µM | TGI (U251 CNS): > 100 µM | TGI (OVCAR-5 ovarian): > 100 µM | TGI (UACC-257 melanoma): > 100 µM | TGI (HS 578T breast): > 100 µM | TGI (HOP-92 NSCLC): > 100 µM | TGI (TK-10 renal): > 100 µM | TGI (HL-60(TB) leukemia): > 100 µM | TGI (A549 NSCLC): > 100 µM | TGI (786-0 renal): > 100 µM | TGI (HCT-15 colon): > 100 µM | TGI (SF-539 CNS): > 100 µM | TGI (SK-OV-3 ovarian): > 100 µM | TGI (OVCAR-3 ovarian): > 100 µM | TGI (RPMI-8226 leukemia): > 100 µM | TGI (NCI-H460 lung): > 100 µM | TGI (PC-3 prostate): > 100 µM | TGI (T-47D breast): > 100 µM | TGI (SR leukemia): > 100 µM | TGI (CCRF-CEM leukemia): > 100 µM | TGI (SNB-75 CNS): > 100 µM | TGI (NCI-H23 lung): > 100 µM | TGI (SN12C renal): > 100 µM | TGI (DU-145 prostate): > 100 µM | TGI (HCT-116 colon): > 100 µM | TGI (A498 renal): > 100 µM | TGI (RXF 393 renal): > 100 µM | TGI (M14 melanoma): > 100 µM | TGI (MDA-MB-435): > 100 µM | TGI (KM12 colon): > 100 µM | TGI (EKVX NSCLC): > 100 µM | TGI (NCI/ADR-RES ovarian): > 100 µM | TGI (MOLT-4 leukemia): > 100 µM | TGI (MDA-MB-231 breast): > 100 µM | TGI (CAKI-1 renal): > 100 µM | TGI (SK-MEL-5 melanoma): > 100 µM | TGI (MALME-3M melanoma): > 100 µM | TGI (UACC-62 melanoma): > 100 µM | TGI (COLO 205 colon): > 100 µM | TGI (SNB-19 CNS): > 100 µM | TGI (OVCAR-8 ovarian): > 100 µM | TGI (HCC-2998 colon): > 100 µM | TGI (MDA-N): > 100 µM | TGI (UO-31 renal): > 100 µM | TGI (ACHN renal): > 100 µM | TGI (SF-295 CNS): > 100 µM | TGI (HT29 colon): > 100 µM | TGI (MCF7 breast): > 100 µM | TGI (BT-549 breast): > 100 µM | TGI (LOX IMVI melanoma): > 100 µM | TGI (SF-268 CNS): > 100 µM

CN(C)CCCN1c2ccccc2CCc2cccc([N+](=O)[O-])c21
TGI (K-562 leukemia): 29.1 µM | TGI (NCI-H226 lung): 69.5 µM | TGI (IGROV1 ovarian): 32.3 µM | TGI (HOP-62 NSCLC): 30 µM | TGI (U251 CNS): 32.9 µM | TGI (OVCAR-5 ovarian): > 100 µM | TGI (UACC-257 melanoma): 34.7 µM | TGI (HS 578T breast): 70.5 µM | TGI (HOP-92 NSCLC): 45.5 µM | TGI (TK-10 renal): 37.2 µM | TGI (HL-60(TB) leukemia): 30.1 µM | TGI (A549 NSCLC): > 100 µM | TGI (786-0 renal): 28.6 µM | TGI (HCT-15 colon): 29.6 µM | TGI (SW-620 colon): 36 µM | TGI (SF-539 CNS): 31.6 µM | TGI (SK-OV-3 ovarian): 85.9 µM | TGI (OVCAR-3 ovarian): 29.8 µM | TGI (RPMI-8226 leukemia): 23.8 µM | TGI (NCI-H460 lung): 32.1 µM | TGI (PC-3 prostate): 34.5 µM | TGI (T-47D breast): 27.8 µM | TGI (SR leukemia): 28.5 µM | TGI (CCRF-CEM leukemia): 14.7 µM | TGI (SNB-75 CNS): 24.4 µM | TGI (OVCAR-4 ovarian): 45.2 µM | TGI (NCI-H23 lung): > 100 µM | TGI (SN12C renal): 52.9 µM | TGI (DU-145 prostate): 32.3 µM | TGI (HCT-116 colon): 28.9 µM | TGI (A498 renal): 37.2 µM | TGI (M14 melanoma): 29.2 µM | TGI (MDA-MB-435): 30.3 µM | TGI (SK-MEL-2 melanoma): 65.6 µM | TGI (KM12 colon): 30.9 µM | TGI (EKVX NSCLC): > 100 µM | TGI (NCI/ADR-RES ovarian): 32.9 µM | TGI (MOLT-4 leukemia): 29.8 µM | TGI (MDA-MB-231 breast): 47.6 µM | TGI (CAKI-1 renal): 48.4 µM | TGI (SK-MEL-5 melanoma): 30 µM | TGI (NCI-H522 lung): 30.6 µM | TGI (MALME-3M melanoma): 32.5 µM | TGI (UACC-62 melanoma): 36.2 µM | TGI (COLO 205 colon): 33.9 µM | TGI (SNB-19 CNS): > 100 µM | TGI (OVCAR-8 ovarian): 29.3 µM | TGI (HCC-2998 colon): 31.5 µM | TGI (MDA-N): 29.7 µM | TGI (UO-31 renal): 41.7 µM | TGI (ACHN renal): 53.6 µM | TGI (SF-295 CNS): 30.1 µM | TGI (HT29 colon): 29.7 µM | TGI (SK-MEL-28 melanoma): 26.1 µM | TGI (MCF7 breast): 30.7 µM | TGI (BT-549 breast): 61 µM | TGI (LOX IMVI melanoma): 30.2 µM | TGI (SF-268 CNS): 64.5 µM
